Starred links: 1 amine or outer side, 2 acyl side, 3 side chain; linkers in the order of their positions; H or OH if unused. Positions of bridges follow the written chain, without caps; N, C: chain ends. Non-standard residues stand in square brackets, D forms with d. Residues, ends and D or L forms follow the SMILES beside them. *: point of attachment. hPhe(3-Cl-4-CF3) = N[C@@H](CCc1ccc(C(F)(F)F)c(Cl)c1)C(=O)O; NMePhe(4-CF3) = CN[C@@H](Cc1ccc(C(F)(F)F)cc1)C(=O)O; X25 = CN([C@@H](Cc1ccc(C(F)F)cc1)C(=O)[*:2])[*:1]; 3Oxa8azabicyclo(3.2.1)octane = C1CC2COCC1N2*; NMePhe(4-Me) = CN[C@@H](Cc1ccc(C)cc1)C(=O)O; NMePhe(2-Me) = CN[C@@H](Cc1ccccc1C)C(=O)O; NMeAla(cPent) = CN[C@@H](CC1CCCC1)C(=O)O; NMeGly(cPent) = CN[C@H](C(=O)O)C1CCCC1; NMe4Pal = CN[C@@H](Cc1ccncc1)C(=O)O; NMeCha = CN[C@@H](CC1CCCCC1)C(=O)O; NMeChg = CN[C@H](C(=O)O)C1CCCCC1; NMeI = CC[C@H](C)[C@H](NC)C(=O)O; NMeE = CN[C@@H](CCC(=O)O)C(=O)O; NMeD = CN[C@@H](CC(=O)O)C(=O)O; NMeL = CN[C@@H](CC(C)C)C(=O)O; NMeNva = CCC[C@H](NC)C(=O)O; NMeV = CN[C@H](C(=O)O)C(C)C; NMeAbu = CC[C@H](NC)C(=O)O; NMeS = CN[C@@H](CO)C(=O)O; Morpholide = C1CN(*)CCO1; NMeA = CN[C@@H](C)C(=O)O; Pyrrolidide = C1CCN(*)C1; Ac5c = NC1(C(=O)O)CCCC1; Aze = O=C(O)[C@@H]1CCN1; Ac4c = NC1(C(=O)O)CCC1; Sar = CNCC(=O)O; Propyl = CCC*
What was measured:
[1] = test system: Human pancreatic cancer cell line AsPC-1; assay: Measurement of AsPC-1 cell growth inhibition (AsPC-1 CGI); type: cell-based; conditions: 96 h
Summary of the method: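 AsPC-1 cells in 15% FBS RPMI-1640 were exposed to test compound for 96 hours at 37° C, with CellTiter-Glo as endpoint.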

[2] = target: T1, Kras and SOS1 (biotin-tagged human Kras loaded with GDP, His-tagged human SOS1) (Homo sapiens, UniProt P01116, G12D); assay: Protein-protein interaction inhibition between Kras and SOS1 (KrasGl2D-SOS PPI) using AlphaScreen; type: binding; conditions: AlphaScreen; biotin-tagged human Kras loaded with GDP, His-tagged human SOS1; read-out: KRAS G12D-SOS PPI IC50
T1 construct: made in house; host or cells: E. coli (stated for Kras only)
T1 sequence (P01116 1-188 isoform P01116-2 G12D): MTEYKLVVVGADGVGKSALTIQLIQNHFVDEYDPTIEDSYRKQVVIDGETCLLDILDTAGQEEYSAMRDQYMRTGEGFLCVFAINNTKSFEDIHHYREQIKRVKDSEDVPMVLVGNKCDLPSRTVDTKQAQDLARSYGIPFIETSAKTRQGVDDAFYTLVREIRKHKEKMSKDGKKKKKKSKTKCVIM
Summary of the method: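 Kras was produced in E. coli, purified, then loaded with GDP. It was paired via streptavidin acceptor beads with His-SOS1 held on nickel donor beads, and proximity signal at 520-620 nm was read after 680 nm illumination.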

Row | Structure (SMILES) | IC50 [1] [nM] | IC50 [2] [nM]
1 | CC[C@H](C)[C@@H]1NC(=O)[C@H](CC(C)C)N(C)C(=O)C[C@@H](C(=O)N(C)C)N(C)C(=O)[C@H]([C@@H](C)CC)N(C)C(=O)C2(CCCC2)NC(=O)[C@H](CCC(=O)NC)N(C)C(=O)[C@H](CCc2ccc(C(F)(F)F)c(Cl)c2)NC(=O)CN(C)C(=O)[C@H](Cc2ccc(C)cc2)N(C)C(=O)[C@@H]2CCN2C(=O)[C@H](C)N(C)C1=O [Compound 1911] ([NMeL]I[NMeA][Aze][NMePhe(4-Me)][Sar][hPhe(3-Cl-4-CF3)][NMeE](NHMe)[Ac5c][NMeI][NMeD]-NMe2; lactam N-11) | 50 to 100 | 0.67
2 | CC[C@H](C)[C@@H]1NC(=O)[C@H](CC(C)C)N(C)C(=O)C[C@@H](C(=O)N(C)C)N(C)C(=O)[C@H](C2CCCC2)N(C)C(=O)C2(CCCC2)NC(=O)[C@H](Cc2ccncc2)N(C)C(=O)[C@H](CCc2ccc(C(F)(F)F)c(Cl)c2)NC(=O)CN(C)C(=O)[C@H](CC2CCCCC2)N(C)C(=O)[C@@H]2CCN2C(=O)[C@H](C)N(C)C1=O [Compound 1913] ([NMeL]I[NMeA][Aze][NMeCha][Sar][hPhe(3-Cl-4-CF3)][NMe4Pal][Ac5c][NMeGly(cPent)][NMeD]-NMe2; lactam N-11) | 100 to 500 | 1.1
3 | CC[C@H](C)[C@@H]1NC(=O)[C@H](CC)N(C)C(=O)C[C@@H](C(=O)N2CCOCC2)N(C)C(=O)[C@H](C2CCCCC2)N(C)C(=O)C2(CCCC2)NC(=O)[C@@H]2CCCN2C(=O)[C@H](CCc2ccc(C(F)(F)F)c(Cl)c2)NC(=O)CN(C)C(=O)[C@H](CC2CCCCC2)N(C)C(=O)CN(C)C(=O)CN(C)C1=O [Compound 1915] ([NMeAbu]I[Sar][Sar][NMeCha][Sar][hPhe(3-Cl-4-CF3)]P[Ac5c][NMeChg][NMeD]-Morpholide; lactam N-11) | 50 to 100 | 0.38
4 | CCC[C@H]1C(=O)N[C@@H]([C@@H](C)CC)C(=O)N(C)CC(=O)N(C)CC(=O)N(C)[C@@H](CC2CCCC2)C(=O)N(C)CC(=O)N[C@@H](CCc2ccc(C(F)(F)F)c(Cl)c2)C(=O)N2CCC[C@H]2C(=O)NC2(CCCC2)C(=O)N(C)[C@@H](C2CCCCC2)C(=O)N(C)[C@H](C(=O)N2C3CCC2COC3)CC(=O)N1C [Compound 1916] ([NMeNva]I[Sar][Sar][NMeAla(cPent)][Sar][hPhe(3-Cl-4-CF3)]P[Ac5c][NMeChg][NMeD]-{3Oxa8azabicyclo(3.2.1)octane}; lactam N-11) | 100 to 500 | 0.99
5 | CC[C@H](C)[C@@H]1NC(=O)[C@H](CC(C)C)N(C)C(=O)C[C@@H](C(=O)N(C)C)N(C)C(=O)[C@H](C2CCCC2)N(C)C(=O)C2(CCCC2)NC(=O)[C@H](CCC(=O)NC)N(C)C(=O)[C@H](CCc2ccc(C(F)(F)F)c(Cl)c2)NC(=O)CN(C)C(=O)[C@H](CC2CCCCC2)N(C)C(=O)[C@@H]2CCN2C(=O)[C@H](C)N(C)C1=O [Compound 1921] ([NMeL]I[NMeA][Aze][NMeCha][Sar][hPhe(3-Cl-4-CF3)][NMeE](NHMe)[Ac5c][NMeGly(cPent)][NMeD]-NMe2; lactam N-11) | 100 to 500 | 0.83
6 | CC[C@H](C)[C@@H]1NC(=O)[C@H](CC(C)C)N(C)C(=O)C[C@@H](C(=O)N2CCOCC2)N(C)C(=O)[C@H](C2CCCCC2)N(C)C(=O)C2(CCCC2)NC(=O)[C@@H]2CCCN2C(=O)[C@H](CCc2ccc(C(F)(F)F)c(Cl)c2)NC(=O)CN(C)C(=O)[C@H](CC2CCCC2)N(C)C(=O)CN(C)C(=O)CN(C)C1=O [Compound 1923] ([NMeL]I[Sar][Sar][NMeAla(cPent)][Sar][hPhe(3-Cl-4-CF3)]P[Ac5c][NMeChg][NMeD]-Morpholide; lactam N-11) | 50 to 100 | 0.89
7 | CC[C@H](C)[C@@H]1NC(=O)[C@H](CC(C)C)N(C)C(=O)C[C@@H](C(=O)N(C)C)N(C)C(=O)[C@H]([C@@H](C)CC)N(C)C(=O)C2(CCCC2)NC(=O)[C@H](Cc2ccccc2C)N(C)C(=O)[C@H](CCc2ccc(C(F)(F)F)c(Cl)c2)NC(=O)CN(C)C(=O)[C@H](Cc2ccc(C)cc2)N(C)C(=O)[C@@H]2CCN2C(=O)[C@H](C)N(C)C1=O [Compound 1924] ([NMeL]I[NMeA][Aze][NMePhe(4-Me)][Sar][hPhe(3-Cl-4-CF3)][NMePhe(2-Me)][Ac5c][NMeI][NMeD]-NMe2; lactam N-11) | 100 to 500 | 5.1
8 | CC[C@H](C)[C@@H]1NC(=O)[C@H](CC(C)C)N(C)C(=O)C[C@@H](C(=O)N(C)C)N(C)C(=O)[C@H](C2CCCC2)N(C)C(=O)C2(CCCC2)NC(=O)[C@H](Cc2ccc(C(F)F)cc2)N(C)C(=O)[C@H](CCc2ccc(C(F)(F)F)c(Cl)c2)NC(=O)CN(C)C(=O)[C@H](CC2CCCCC2)N(C)C(=O)[C@@H]2CCN2C(=O)[C@H](C)N(C)C1=O [Compound 1926] ([NMeL]I[NMeA][Aze][NMeCha][Sar][hPhe(3-Cl-4-CF3)][X25][Ac5c][NMeGly(cPent)][NMeD]-NMe2; lactam N-11) | 100 to 500 | 21
9 | CC(C)C[C@H]1C(=O)N[C@@H](C(C)C)C(=O)N(C)CC(=O)N(C)CC(=O)N(C)[C@@H](CC2CCCCC2)C(=O)N(C)CC(=O)N[C@@H](CCc2ccc(C(F)(F)F)c(Cl)c2)C(=O)N2CCC[C@H]2C(=O)NC2(CCCC2)C(=O)N(C)[C@@H](C2CCCCC2)C(=O)N(C)[C@H](C(=O)N2C3CCC2COC3)CC(=O)N1C [Compound 1928] ([NMeL]V[Sar][Sar][NMeCha][Sar][hPhe(3-Cl-4-CF3)]P[Ac5c][NMeChg][NMeD]-{3Oxa8azabicyclo(3.2.1)octane}; lactam N-11) | 100 to 500 | 0.5
10 | CCCOC[C@H]1C(=O)N(C)CC(=O)N[C@@H](CCc2ccc(C(F)(F)F)c(Cl)c2)C(=O)N2CCC[C@H]2C(=O)NC2(CCCC2)C(=O)N(C)[C@@H](C2CCCCC2)C(=O)N(C)[C@H](C(=O)N2CCCC2)CC(=O)N(C)[C@@H](CC)C(=O)N[C@@H]([C@@H](C)CC)C(=O)N(C)CC(=O)N(C)CC(=O)N1C [Compound 1929] ([NMeAbu]I[Sar][Sar][NMeS](Propyl)[Sar][hPhe(3-Cl-4-CF3)]P[Ac5c][NMeChg][NMeD]-Pyrrolidide; lactam N-11) | 100 to 500 | 0.61
11 | CC[C@H](C)[C@@H]1NC(=O)[C@H](CC(C)C)N(C)C(=O)C[C@@H](C(=O)N(C)C)N(C)C(=O)[C@H]([C@@H](C)CC)N(C)C(=O)C2(CCCC2)NC(=O)[C@H](Cc2ccc(C(F)F)cc2)N(C)C(=O)[C@H](CCc2ccc(C(F)(F)F)c(Cl)c2)NC(=O)CN(C)C(=O)[C@H](Cc2ccc(C)cc2)N(C)C(=O)[C@@H]2CCN2C(=O)[C@H](C)N(C)C1=O [Compound 1930] ([NMeL]I[NMeA][Aze][NMePhe(4-Me)][Sar][hPhe(3-Cl-4-CF3)][X25][Ac5c][NMeI][NMeD]-NMe2; lactam N-11) | 20 to 50 | 3.6
12 | CC[C@H](C)[C@@H]1NC(=O)[C@H](CC)N(C)C(=O)C[C@@H](C(=O)N2CCCC2)N(C)C(=O)[C@H](C2CCCCC2)N(C)C(=O)C2(CCCC2)NC(=O)[C@@H]2CCCN2C(=O)[C@H](CCc2ccc(C(F)(F)F)c(Cl)c2)NC(=O)CN(C)C(=O)[C@H](CC2CCCC2)N(C)C(=O)CN(C)C(=O)CN(C)C1=O [Compound 1931] ([NMeAbu]I[Sar][Sar][NMeAla(cPent)][Sar][hPhe(3-Cl-4-CF3)]P[Ac5c][NMeChg][NMeD]-Pyrrolidide; lactam N-11) | 100 to 500 | 0.56
13 | CC[C@H](C)[C@@H]1NC(=O)[C@H](CC(C)C)N(C)C(=O)C[C@@H](C(=O)N2C3CCC2COC3)N(C)C(=O)[C@H](C2CCCCC2)N(C)C(=O)C2(CCCC2)NC(=O)[C@@H]2CCCN2C(=O)[C@H](CCc2ccc(C(F)(F)F)c(Cl)c2)NC(=O)CN(C)C(=O)[C@H](Cc2ccc(C(F)(F)F)cc2)N(C)C(=O)CN(C)C(=O)CN(C)C1=O [Compound 1932] ([NMeL]I[Sar][Sar][NMePhe(4-CF3)][Sar][hPhe(3-Cl-4-CF3)]P[Ac5c][NMeChg][NMeD]-{3Oxa8azabicyclo(3.2.1)octane}; lactam N-11) | 50 to 100 | 1.1
14 | CCC[C@H]1C(=O)N[C@@H]([C@@H](C)CC)C(=O)N(C)CC(=O)N(C)CC(=O)N(C)[C@@H](CC2CCCCC2)C(=O)N(C)CC(=O)N[C@@H](CCc2ccc(C(F)(F)F)c(Cl)c2)C(=O)N2CCC[C@H]2C(=O)NC2(CCCC2)C(=O)N(C)[C@@H](C2CCCCC2)C(=O)N(C)[C@H](C(=O)N2C3CCC2COC3)CC(=O)N1C [Compound 1933] ([NMeNva]I[Sar][Sar][NMeCha][Sar][hPhe(3-Cl-4-CF3)]P[Ac5c][NMeChg][NMeD]-{3Oxa8azabicyclo(3.2.1)octane}; lactam N-11) | 50 to 100 | 0.59
15 | CC[C@H](C)[C@@H]1NC(=O)[C@H](CC(C)C)N(C)C(=O)C[C@@H](C(=O)N2CCOCC2)N(C)C(=O)[C@H](C(C)C)N(C)C(=O)C2(CCCC2)NC(=O)[C@@H]2CCCN2C(=O)[C@H](CCc2ccc(C(F)(F)F)c(Cl)c2)NC(=O)CN(C)C(=O)[C@H](CC2CCCCC2)N(C)C(=O)CN(C)C(=O)CN(C)C1=O [Compound 1934] ([NMeL]I[Sar][Sar][NMeCha][Sar][hPhe(3-Cl-4-CF3)]P[Ac5c][NMeV][NMeD]-Morpholide; lactam N-11) | 100 to 500 | 1
16 | CC[C@H](C)[C@@H]1NC(=O)[C@H](CC(C)C)N(C)C(=O)C[C@@H](C(=O)N2C3CCC2COC3)N(C)C(=O)[C@H](C2CCCCC2)N(C)C(=O)C2(CCC2)NC(=O)[C@@H]2CCCN2C(=O)[C@H](CCc2ccc(C(F)(F)F)c(Cl)c2)NC(=O)CN(C)C(=O)[C@H](CC2CCCCC2)N(C)C(=O)CN(C)C(=O)CN(C)C1=O [Compound 1936] ([NMeL]I[Sar][Sar][NMeCha][Sar][hPhe(3-Cl-4-CF3)]P[Ac4c][NMeChg][NMeD]-{3Oxa8azabicyclo(3.2.1)octane}; lactam N-11) | 20 to 50 | 0.68

— patent publication US12371454B2, “Cyclic peptide compound having Kras inhibitory action” (priority 2019, dated 2025)
